In this test the target is T1, human NK3 (Homo sapiens, UniProt P29371).
T1 sequence (P29371 1-465): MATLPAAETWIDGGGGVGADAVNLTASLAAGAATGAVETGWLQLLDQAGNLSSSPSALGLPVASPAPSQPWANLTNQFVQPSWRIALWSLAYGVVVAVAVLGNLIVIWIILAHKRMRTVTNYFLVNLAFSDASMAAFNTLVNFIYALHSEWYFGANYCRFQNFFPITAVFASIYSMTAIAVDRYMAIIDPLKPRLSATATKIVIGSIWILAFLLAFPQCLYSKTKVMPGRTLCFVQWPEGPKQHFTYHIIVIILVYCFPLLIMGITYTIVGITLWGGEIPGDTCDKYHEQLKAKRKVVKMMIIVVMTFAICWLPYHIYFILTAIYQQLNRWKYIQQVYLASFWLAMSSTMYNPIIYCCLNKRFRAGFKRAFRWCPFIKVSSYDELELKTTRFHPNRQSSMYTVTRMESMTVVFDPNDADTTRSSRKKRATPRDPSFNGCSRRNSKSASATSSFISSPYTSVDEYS
The test can be described thus: FLIPR calcium assay in antagonist mode (NKB EC70 challenge). It counts as cell-based. The settings on record: stable cell line expressing human recombinant NK3; antagonist mode vs EC70 of NKB agonist. Here is the method: Stable Cell Lines: A human recombinant NK3 Tachykinin Receptor stable cell line was purchased from GenScript (Genscript, Cat. #M00201; GenBank Accession Number NM 001059). The cell line was cultured according to manufacturer instructions, using 100 μg/mL Hygromycin B (Invitrogen, Cat. #D2650) for selective pressure. Cells were then collected using 0.05% Trypsin-EDTA (GIBCO, Cat. #25300) and frozen in a freezing media containing 90% FBS (Gibco, Cat. #10099-141) and 10% DMSO (Sigma, Cat. #D2650) at a density of 30×10^6 cells/mL. This bank of assay-ready frozen cells was later used in FLIPR assays to evaluate the potency and efficacy of NK3 antagonist test compounds.
FLIPR Calcium Assay: The FLIPR assay, used to measure changes in intracellular calcium levels, was performed in a 384-well plate format using the FLIPR Calcium 6 assay kit (Molecular Devices, Cat. #R8190). Assay-ready frozen cells expressing human NK3 (Genscript, Cat. #M00201) were thawed, washed, trypsinized, counted using a ViCell, and plated in cell growth media without Hygromycin at a density of […] (40 μL/well).
Calculation of NKB EC70: An EC70 concentration of NKB needed to be determined for competition against test antagonists prior to the compound screen. NKB agonist (Phoenix Pharmaceuticals, Cat. #046-26) was diluted in DMSO at 1800 nM (6-fold the final concentration) and serially diluted to generate a 13-point dose response curve (3-fold serial dilution) using an ECHO. 20 μL of 1× stimulation buffer was added using the BRAVO. 10 μL of DMSO was added while on the FLIPR (described as the first addition), then the RFU signal was measured for 10 minutes. The NKB titration was added to the plate, then the RFU signal was measured for 10 minutes (described as the second addition) on the FLIPR. The EC70 concentration was determined by using a four-parameter fit on GraphPad Prism prior to performing the compound screen.
FLIPR Screen in Antagonist Mode: Test compounds were prepared at 60 μM (6-fold the final concentration) and spotted in 370 nL using the Janus and ECHO. 20 μL of assay buffer was added using the BRAVO. Calcium-sensitive dye was reconstituted in loading buffer (Molecular Devices, Cat. #R8190). Media was removed from the cell plate using a Bluecat Cell Washer, and 40 μL of dye was added to the cell plate using the Apricot. The plate was incubated for 2 hours at 37° C., 5% CO2, then transferred to the FLIPR instrument. 10 μL of compound was added on the FLIPR (described as the first addition), then the RFU signal was measured for 10 minutes. EC70 of NKB agonist was added to the entire plate (described as the second addition), and the RFU signal was measured for 10 minutes on the FLIPR. RFU (relative fluorescence units) signals for first baseline, first peak, second baseline, and second peak were measured using the FLIPR. RFU signal (second peak minus second baseline) for positive (Max, at 10 μM antagonist) and negative (Min, at 0 μM antagonist) controls were used to normalize data and generate values for % Activity. IC50 and efficacy values were determined using a standard curve fitting equation on Dotmatics.
As for `Cc1nn(C)cc1-c1ccccc1-c1nc2cc(C(=O)N[C@H]3C[C@H](CO)C3)ccn2c1Cl` [Compound 641], the IC50 (as a rule, the concentration that gives 50% inhibition) was 1.04 nM.

`Cc1nn(C)cc1-c1ccccc1-c1nc2cc(C(=O)N[C@H]3C[C@@H](CO)C3)ccn2c1Cl` [Compound 643]: the IC50 is 1.08 nM.

For `Cc1nn(C)cc1-c1ccccc1-c1nc2cc(C(=O)NC[C@H]3C[C@@H](O)C3(C)C)ccn2c1Cl` [Compound 645], the IC50 is 2.02 nM.

On to `Cc1nn(C)cc1-c1ccccc1-c1nc2cc(C(=O)N3C[C@@H]4[C@@H](O)[C@@H]4C3)ccn2c1Cl` [Compound 647], for which the IC50 was determined as 9.16 nM.

As to `Cc1nn(C)cc1-c1ccccc1-c1nc2cc(C(=O)NCC3(O)COC3)ccn2c1Cl` [Compound 650], the IC50 amounted to 5.83 nM.

As to `Cc1nn(C)cc1-c1ccccc1-c1nc2cc(C(=O)NCCC3(O)COC3)ccn2c1Cl` [Compound 651], the IC50 amounted to 9.28 nM.

Turning to `Cc1nn(C)cc1-c1ccccc1-c1nc2cc(C(=O)NC3CCNCC3)ccn2c1Cl` [Compound 704], the IC50 was determined as 6.76 nM.

Take `Cc1nn(C)cc1-c1cccc(F)c1-c1nc2cc(C(=O)NC3CCNCC3)ccn2c1Cl` [Compound 705]: the IC50 is 4.97 nM.

Consider `Cc1nn(C)cc1-c1ccccc1-c1nc2cc(C(=O)NC(C)c3n[nH]c(=O)[nH]3)ccn2c1Cl` (stereo not shown) [Compound 747], for which the IC50 was found to be 2.08 nM.

Turning to `Cc1nn(C)cc1-c1ccccc1-c1nc2cc(C(=O)NCCc3n[nH]c(=O)[nH]3)ccn2c1Cl` [Compound 748], the IC50 turned out to be 5.58 nM.

As to `Cc1nc(N)ccc1CNC(=O)c1ccn2c(Cl)c(-c3ccccc3-c3cn(C)nc3C)nc2c1` [Compound 759], the half-inhibitory concentration (IC50) came out at 2.78 nM.

As for `Cc1nn(C)cc1-c1ccccc1-c1nc2cc(C(=O)NCc3cnc(N)nc3)ccn2c1Cl` [Compound 761], the IC50 worked out at 1.92 nM.

As to `Cc1nn(C)cc1-c1ccccc1-c1nc2cc(C(=O)N[C@H]3CO[C@H]4[C@@H]3OC[C@@H]4O)ccn2c1Cl` [Compound 767], the half-inhibitory concentration (IC50) was 4.26 nM.

In the case of `Cc1nn(C)cc1-c1ccccc1-c1nc2cc(C(=O)N[C@H]3CO[C@H]4[C@@H]3OC[C@H]4O)ccn2c1Cl` [Compound 768], the IC50 is 1.96 nM.

For the compound `Cc1nn(C)cc1-c1cccc(F)c1-c1nc2cc(C(=O)N[C@H]3CO[C@H]4[C@@H]3OC[C@@H]4O)ccn2c1Cl` [Compound 773], the IC50 is 2.63 nM.

Consider `Cc1nn(C)cc1-c1ccccc1-c1nc2cc(C(=O)N[C@H]3CO[C@H]4[C@@H]3OC[C@@H]4O)ccn2c1C#N` [Compound 774], for which the IC50 was found to be 5.21 nM.

On to `Cc1nn(C)cc1-c1cccc(F)c1-c1nc2cc(C(=O)N[C@H]3CO[C@H]4[C@@H]3OC[C@@H]4O)ccn2c1C#N` [Compound 775], for which the IC50 amounted to 4.64 nM.

As for `Cc1nn(C)cc1-c1ccccc1-c1nc2cc(C(=O)N[C@H]3CO[C@H]4[C@@H]3OC[C@H]4O)ccn2c1C` [Compound 779], the IC50 came out at 5.82 nM.

As for `Cc1nn(C)cc1-c1cccc(F)c1-c1nc2cc(C(=O)N[C@H]3CO[C@H]4[C@@H]3OC[C@H]4O)ccn2c1Cl` [Compound 780], the IC50 is 3.34 nM.

With `Cc1nn(C)cc1-c1ccccc1-c1nc2cc(C(=O)N[C@H]3CO[C@H]4[C@@H]3OC[C@H]4O)ccn2c1C#N` [Compound 781], the half-inhibitory concentration (IC50) came out at 12.7 nM.

Turning to `Cc1nn(C)cc1-c1cccc(F)c1-c1nc2cc(C(=O)N[C@H]3CO[C@H]4[C@@H]3OC[C@H]4O)ccn2c1C#N` [Compound 782], the IC50 turned out to be 4.8 nM.

Take `Cc1c(-c2ccccc2-c2cn(C)nc2C(F)(F)F)nc2cc(C(=O)N[C@@H]3CO[C@H]4[C@@H]3OC[C@H]4O)ccn12` [Compound 783]: the IC50 was determined as 3.21 nM.

Regarding `Cc1c(-c2ccccc2-c2cn(C)nc2C(F)(F)F)nc2cc(C(=O)N[C@H]3CO[C@H]4[C@@H]3OC[C@H]4O)ccn12` [Compound 784], the IC50 is 6.21 nM.

Regarding `CC12CC(NC(=O)c3ccn4c(Cl)c(-c5c(F)cc(F)cc5-c5c[nH]nc5Cl)nc4c3)(CO1)C2` [Compound 788, 3-chloro-2-(2-(3-chloro-1H-pyrazol-4-yl)-4,6-difluorophenyl)-N-(1-methyl-2-oxabicyclo[2.1.1]hexan-4-yl)imidazo[1,2-a]pyridine-7-carboxamide], the IC50 stood at 1.03 nM.

For the compound `N#CC12CC(NC(=O)c3ccn4c(Cl)c(-c5c(F)cc(F)cc5-c5c[nH]nc5F)nc4c3)(C1)C2` [Compound 789, 3-chloro-N-(3-cyanobicyclo[1.1.1]pentan-1-yl)-2-(2,4-difluoro-6-(3-fluoro-1H-pyrazol-4-yl)phenyl)imidazo[1,2-a]pyridine-7-carboxamide], the IC50 worked out at 1.99 nM.

As for `CC12CC(NC(=O)c3ccn4c(Cl)c(-c5c(F)cc(F)cc5-c5c[nH]nc5F)nc4c3)(CO1)C2` [Compound 790, 3-chloro-2-(2,4-difluoro-6-(3-fluoro-1H-pyrazol-4-yl)phenyl)-N-(1-methyl-2-oxabicyclo[2.1.1]hexan-4-yl)imidazo[1,2-a]pyridine-7-carboxamide], the IC50 came to 3.31 nM.

On to `Cn1cc(-c2cccc(F)c2-c2nc3cc(C(=O)N[C@H]4C[C@@](C)(O)C4)ccn3c2Cl)c(F)n1` [Compound 791, 3-chloro-2-(2-fluoro-6-(3-fluoro-1-methyl-1H-pyrazol-4-yl)phenyl)-N-((1s,3s)-3-hydroxy-3-methylcyclobutyl)imidazo[1,2-a]pyridine-7-carboxamide], for which the IC50 was determined as 0.72 nM.

`Cc1nn(C)cc1-c1ccccc1-c1nc2cc(C(=O)N3CCC4(CC(CO)C4)C3)ccn2c1Cl` (stereo not shown) [Compound 792]: the half-inhibitory concentration (IC50) was determined as 2.09 nM.

As to `Cc1nn(C)cc1-c1ccccc1-c1nc2cc(C(=O)N[C@H]3C[C@H](C(C)(C)O)C3)ccn2c1Cl` [Compound 793], the IC50 is 1.19 nM.

As for `Cc1nn(C)cc1-c1ccccc1-c1nc2cc(C(=O)N[C@@H]3CO[C@H]4[C@@H]3OC[C@H]4N)ccn2c1Cl` [Compound 794], the IC50 amounted to 8.45 nM.

`Cn1cc(-c2ccccc2-c2nc3cc(C(=O)N4C[C@@H]5C[C@H]4C(=O)N5)ccn3c2Cl)c(C#N)n1` [Compound 795]: the IC50 amounted to 12.5 nM.

For `Cc1nn(C)cc1-c1cccc(F)c1-c1nc2cc(C(=O)N3CCN(C(CO)CO)CC3)ccn2c1Cl` [Compound 796], the IC50 came to 4.11 nM.

`Cc1nn(C)cc1-c1ccccc1-c1nc2cc(C(=O)NC[C@@H](C)N3CCNCC3)ccn2c1Cl` [Compound 797]: the IC50 was found to be 4.63 nM.

On to `Cc1nn(C)cc1-c1ccccc1-c1nc2cc(C(=O)N3C[C@@H]4NCCN[C@@H]4C3)ccn2c1Cl` [Compound 798], for which the IC50 is 22.4 nM.

On to `Cc1nn(C)cc1-c1cccc(F)c1-c1nc2cc(C(=O)N3CCNCC3)ccn2c1Cl` [Compound 799], for which the half-inhibitory concentration (IC50) worked out at 4.7 nM.

For the compound `Cc1nn(C)cc1-c1ccc(F)cc1-c1nc2cc(C(=O)N3C[C@@H]4C[C@H]3C(=O)N4)ccn2c1Cl` [Compound 800], the IC50 turned out to be 8.07 nM.

`Cc1c(-c2ccccc2-c2nc3cc(C(=O)N[C@@H]4CO[C@H]5[C@@H]4OC[C@H]5O)ccn3c2Cl)cnn1CC1CC1` [Compound 801]: the concentration for half-maximal inhibition (IC50) came to 22 nM.

Consider `Cc1nn(C)cc1-c1cc(F)cc(F)c1-c1nc2cc(C(=O)N3CC4(O)CC3C4)ccn2c1Cl` [Compound 814], for which the IC50 amounted to 3.33 nM.

With `O=C1N[C@H]2C[C@@H]1N(C(=O)c1ccn3c(Cl)c(-c4ccccc4-c4cnn(C(F)(F)F)c4C(F)(F)F)nc3c1)C2` [Compound 816], the IC50 was determined as 8.46 nM.

Turning to `Cc1nn(C)cc1-c1c(F)c(F)cc(F)c1-c1nc2cc(C(=O)N3C[C@@H]4C[C@H]3C(=O)N4)ccn2c1Cl` [Compound 817], the half-inhibitory concentration (IC50) came to 1.92 nM.

The values above are taken from patent US12281114B2, “NK3 modulators and uses thereof” (Kallyope, Inc., priority 2023, dated 2025).
